The results in this text go back to publication PMC7329766, “Synthesis of the Thomsen-Friedenreich-antigen (TF-antigen) and binding of Galectin-3 to TF-antigen presenting neo-glycoproteins” (Glycoconjugate Journal, 2020).

The target of data set [1] is T1, human galectin-3 (Gal-3) (Homo sapiens, UniProt P17931).
T1 construct: gene LGALS3; N-terminal His6-tag (kept, used for detection), expressed in E. coli Rosetta (DE3) pLysS, IMAC purified
Nature of the data set: competitive enzyme-linked lectin assay, inhibition of Gal-3 binding to immobilized asialofetuin.

Substrate in data set [2]: OC[C@H]1O[C@H](F)[C@H](O)[C@@H](O)[C@H]1O
Nature of the data set: discontinuous HPLC assay, glycosynthase reaction. Type of data set: biochemical, Niallia circulans. The note with it: donor substrate, acceptor GalNAc(α1-EG3-azide fixed at 5 mM), 50 mM HEPES pH 7.2, 30 °C, text gives 0.22 mM for the donor, Fig. 2 legend prints 0.22 M and assigns it to panel b (acceptor).

T1 sequence (P17931 whole entry): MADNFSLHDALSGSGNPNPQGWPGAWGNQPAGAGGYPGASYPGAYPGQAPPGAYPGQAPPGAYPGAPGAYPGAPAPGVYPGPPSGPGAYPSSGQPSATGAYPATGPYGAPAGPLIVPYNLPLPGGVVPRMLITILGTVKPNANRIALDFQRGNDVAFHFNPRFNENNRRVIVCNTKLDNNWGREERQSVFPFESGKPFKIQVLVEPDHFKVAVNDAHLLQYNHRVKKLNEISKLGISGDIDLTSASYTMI

In data set [1], `CC(=O)N[C@H]1[C@@H](OCCOCCOCCN=[N+]=[N-])O[C@H](CO)[C@H](O)[C@@H]1O[C@@H]1O[C@H](CO)[C@H](O)[C@H](O)[C@H]1O` [compound 6, TF-antigen-azide] returned an IC50 of 1560 ± 92.6 µM.

B1: BgaC (β-galactosidase) (Niallia circulans; E233G) (protein)
chain: MSQLTYDDSFLLDGKEIRLLSGAMHYFRTVPEYWEDRLLKLKACGFNTVETYVAWNLHEPEEGQFVFEGIADIVRFIKTAEKVGLHVIVRPGPFICAEWEFGGFPYWLLTVPNIKLRCFNQPYLEKVDAYFDVLFERLRPLLSSNGGPIIALQIENEYGSFGNDQKYLQYLRDGIKKRVGNELLFTSDGPEPSMLSGGMIEGIFETVNFGSRAESAFAQLKQYQPNAPLMCMGFWHGWFDHWGEEHHTRSAESVVETLEEILKQNGSVNFYMAHGGTNFGFYNGANHNETDYQPTITSYDYDGLLTESGDVTEKFYAVRKVFEKYVDLPELNLPAPIPKRLFGKVKFTEHAGLLDSLHRISTPQKSEAPLPMEKYGQAYGFIVYETTIKGAYGKQALTVQDIHDRGQVYVNGEYVGIVERNRGCSRLVVELTEEESKLQIIVENMGRINYGPFVVDYKGITEGVRLGNQFLFDWTVYPLPLKDLSSLEFTADEVKENFPYFHKGILTVDKAADTFIDLSEWTKGVVFVNGHHLGRYWEIGPQQTLYVPAPFLQEGENEIILLELHKHHQSVTFVDTPVLGAIPKTP
notes: recombinant, plasmid pETDuet-1, E. coli BL21 (DE3), IMAC purified
For B1, in data set [2], the Km is 220 µM.
